Experiments:
Type in all cases: cell-based, human
RL tumor spheroids = experiment: RL tumor spheroid model with anti-CD19 CAR T cells; details: Day 4; 1 μM Compound B, 0.01 μM or 0.1 μM Compound A
Experimental: Cytolytic activity was also assessed in a spheroid model. About 5,000 RL cells were plated 48 hours prior to addition of 5,000 anti-CD19 CAR T cells (1:1 E:T ratio). Anti-CD19 CAR T cells were co-cultured with RL tumor spheroids, in the presence of Compound B (1 μM) or Compound A (0.001 μM, 0.01 μM or 0.1 μM)).

Aiolos = experiment: Intracellular Aiolos expression in stimulated anti-CD19 CAR-expressing T cells (flow cytometry MFI)
Experimental: (§1) T cell compositions containing anti-CD19 CAR-expressing T cells were generated from leukapheresis samples from three healthy human adult donors by a process including immunoaffinity-based selection of T cells (including CD4+ and CD8+ cells) from the samples, resulting in two compositions, enriched for CD8+ and CD4+ cells, respectively. The cells were incubated in the presence of (S)-3-[4-(4-morpholin-4-ylmethyl-benzyloxy)-1-oxo-1,3-dihydro-isoindol-2-yl]-piperidine-2,6-dione (Compound A) or 3-(5-amino-2-methyl-4-oxo-4H-quinazolin-3-yl)-piperidine-2,6-dione (Compound B), and expression of the transcription factors Ikaros and Aiolos was assessed. Cells of the enriched CD4+ and CD8+ compositions were separately activated with anti-CD3/anti-CD28 beads and subjected to lentiviral transduction with a vector encoding an anti-CD19 CAR. The anti-CD19 CAR contained an anti-CD19 scFv derived from a murine antibody (variable region derived from FMC63), an immunoglobulin-derived spacer, a transmembrane domain derived from CD28, a costimulatory region derived from 4-1BB, and a CD3-zeta intracellular signaling domain. The expression construct in the viral vector further contained sequences encoding a truncated receptor, which served as a surrogate marker for CAR expression, which was separated from the CAR sequence by a T2A ribosome skip sequence. Transduced populations then were separately incubated in the presence of stimulating reagents for cell expansion. Expanded CD8+ and CD4+ cells were formulated and cryopreserved separately and stored. The cryopreserved CD4+ and CD8+ anti-CD19 CAR-expressing cells from each donor were thawed, and combined at approximately a 1:1 CAR+CD4+:CD8+ ratio prior to use. Approximately 2.5×10^5 cells of the generated CAR+ T cell composition were stimulated overnight with 1 μg/ml of a CAR-specific anti-idiotypic antibody in the presence of 3-(5-amino-2-methyl-4-oxo-4H-quinazolin-3-yl)-piperidine-2,6-dione (Compound B) or (S)-3-[4-(4-morpholin-4-ylmethyl-benzyloxy)-1-oxo-1,3-dihydro-isoindol-2-yl]-piperidine-2,6-dione (Compound A) at concentrations ranging from 10 to 10000 nM or a vehicle control overnight at 37° C., 5% C02. Following overnight incubation, anti-CD19 CAR-expressing T cells were stained with antibodies and analyzed by flow cytometry to assess intracellular levels of Ikaros and Aiolos in CD4+ CAR+ or CD8+ CAR+ cells, as measured by median fluorescence intensity (MFI). Median fluorescence intensity (MFI) values for Ikaros and Aiolos were normalized and calculated as a percentage relative to vehicle control. […] The EC50 for reducing Aiolos and Ikaros expression was calculated as determined from the concentration of the inhibitor that reduced Aiolos or Ikaros MFI to 50% of its maximal MFI in the absence of the inhibitor.

RL cells = experiment: Rescue of chronically stimulated CAR T cells cultured with RL cells; details: Compound B 1 μM, Compound A 0.001, 0.01 or 0.1 μM
Experimental: The RL cells were further used to assess the ability of immunomodulatory compounds to rescue or reverse the anti-CD19 CAR T cells from exhaustion. Anti-CD19 CAR-expressing T cells were stimulated under conditions to induce chronic stimulation and then were subsequently treated (rescue) with Compound B (1 μM) or Compound A (0.001 μM, 0.01 μM or 0.1 μM), or a vehicle control. Long-term, chronic stimulation was carried out by stimulation of CAR T cells with 30 μg/mL plate-bound anti-idiotypic (anti-ID) antibody for 6 days, substantially as described in Example 3. After the chronic stimulation, the CAR-T cells were cultured with RL cells in the presence of Compound B or Compound A. Cytolytic activity was assessed over time by measuring tumor cell number in the culture.

Ikaros = experiment: Intracellular Ikaros expression in stimulated anti-CD19 CAR-expressing T cells (flow cytometry MFI)
Experimental: as §1

[1] = overnight incubation, 1 μg/ml anti-idiotypic antibody, average of donors (range, 95% confidence interval)

Structure (SMILES): Cc1nc2cccc(N)c2c(=O)n1C1CCC(=O)NC1=O (stereo not drawn) [Compound B, 3-(5-amino-2-methyl-4-oxo-4H-quinazolin-3-yl)-piperidine-2,6-dione, reference compound]
sensitivity of RL tumor spheroids to compound (RL tumor spheroids): sensitive
CAR T cell cytolytic activity, RL cell growth (RL cells): substantially improved

Source: patent US20220401483A1, “COMBINATION OF A T CELL THERAPY AND (S)-3-[4-(4-MORPHOLIN-4-YLMETHYL-BENZYLOXY)-L-OXO-L,3-DIHYDRO-ISOINDOL-2-YL]-PIPERIDINE-2,6-DIONE” (Juno Therapeutics, Inc., priority 2019, published 2022)
